{
  "source": "paper PMC3956373",
  "about": "“Suppression of type 1 pilus assembly in uropathogenic Escherichia coli by chemical inhibition of subunit polymerization” (Journal of Antimicrobial Chemotherapy, 2013)",
  "biological_target": "T1, FimH (Escherichia coli, UniProt P08191)",
  "T1 construct": "with FimC (C-terminal His tag); FimG Nte peptide in the assay",
  "T1 sequence (P08191 22-300)": "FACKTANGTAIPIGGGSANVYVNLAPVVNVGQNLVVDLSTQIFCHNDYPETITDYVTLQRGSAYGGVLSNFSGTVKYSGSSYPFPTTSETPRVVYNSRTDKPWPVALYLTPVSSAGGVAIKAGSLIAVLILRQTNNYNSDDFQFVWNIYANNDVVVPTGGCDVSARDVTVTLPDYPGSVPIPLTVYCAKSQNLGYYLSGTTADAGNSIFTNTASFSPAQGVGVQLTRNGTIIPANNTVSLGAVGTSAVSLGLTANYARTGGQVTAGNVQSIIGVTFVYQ",
  "T1 sequence (P31697 37-241, further chain)": "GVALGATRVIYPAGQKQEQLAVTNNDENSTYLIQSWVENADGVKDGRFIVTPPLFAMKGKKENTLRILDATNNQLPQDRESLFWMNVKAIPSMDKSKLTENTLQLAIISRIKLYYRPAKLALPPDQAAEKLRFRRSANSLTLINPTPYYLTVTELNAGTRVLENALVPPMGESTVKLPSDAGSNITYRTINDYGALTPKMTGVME",
  "T1 sequence (P08190 24-167, further chain)": "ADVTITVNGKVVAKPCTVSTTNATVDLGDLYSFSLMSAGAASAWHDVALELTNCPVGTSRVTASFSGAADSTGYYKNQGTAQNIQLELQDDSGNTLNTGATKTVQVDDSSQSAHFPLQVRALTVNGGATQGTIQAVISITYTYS",
  "assay": "SDS-PAGE donor strand exchange assay with purified FimChis:FimH ([…]) and FimG Nte peptide ([…]), concentration-response",
  "format": "biochemical",
  "data": [
    {"smiles": "O=C(CSc1nnc(-c2ccc(S(=O)(=O)N3CCCC3)cc2)o1)Nc1ccc(Cl)cc1", "note": "[AL1, N-(4-chloro-phenyl)-2-{5-[4-(pyrrolidine-1-sulfonyl)-phenyl]-[1,3,4]oxadiazol-2-ylsulfanyl}-acetamide]", "values": [
      {"measurement": "IC50", "value": 286, "unit": "µM"}
    ]}
  ]
}
